Reference: ChEMBL document CHEMBL4145550, “Synthesis of N-(1-(6-acetamido-5-phenylpyrimidin-4-yl) piperidin-3-yl) amide derivatives as potential inhibitors for mitotic kinesin spindle protein” (Eur J Med Chem, 2018)

Key:
[1] = target: T1, Kinesin-like protein KIF11 (Homo sapiens, UniProt P52732); experiment: Inhibition of human mitotic kinesin Eg5 motor domain (1 to 368 residues) assessed as reduction in steady-state basal ATPase activity using ATP as substrate by pyruvate kinase/lactate dehydrogenase enzyme coupled assay
T1 sequence (P52732 whole entry): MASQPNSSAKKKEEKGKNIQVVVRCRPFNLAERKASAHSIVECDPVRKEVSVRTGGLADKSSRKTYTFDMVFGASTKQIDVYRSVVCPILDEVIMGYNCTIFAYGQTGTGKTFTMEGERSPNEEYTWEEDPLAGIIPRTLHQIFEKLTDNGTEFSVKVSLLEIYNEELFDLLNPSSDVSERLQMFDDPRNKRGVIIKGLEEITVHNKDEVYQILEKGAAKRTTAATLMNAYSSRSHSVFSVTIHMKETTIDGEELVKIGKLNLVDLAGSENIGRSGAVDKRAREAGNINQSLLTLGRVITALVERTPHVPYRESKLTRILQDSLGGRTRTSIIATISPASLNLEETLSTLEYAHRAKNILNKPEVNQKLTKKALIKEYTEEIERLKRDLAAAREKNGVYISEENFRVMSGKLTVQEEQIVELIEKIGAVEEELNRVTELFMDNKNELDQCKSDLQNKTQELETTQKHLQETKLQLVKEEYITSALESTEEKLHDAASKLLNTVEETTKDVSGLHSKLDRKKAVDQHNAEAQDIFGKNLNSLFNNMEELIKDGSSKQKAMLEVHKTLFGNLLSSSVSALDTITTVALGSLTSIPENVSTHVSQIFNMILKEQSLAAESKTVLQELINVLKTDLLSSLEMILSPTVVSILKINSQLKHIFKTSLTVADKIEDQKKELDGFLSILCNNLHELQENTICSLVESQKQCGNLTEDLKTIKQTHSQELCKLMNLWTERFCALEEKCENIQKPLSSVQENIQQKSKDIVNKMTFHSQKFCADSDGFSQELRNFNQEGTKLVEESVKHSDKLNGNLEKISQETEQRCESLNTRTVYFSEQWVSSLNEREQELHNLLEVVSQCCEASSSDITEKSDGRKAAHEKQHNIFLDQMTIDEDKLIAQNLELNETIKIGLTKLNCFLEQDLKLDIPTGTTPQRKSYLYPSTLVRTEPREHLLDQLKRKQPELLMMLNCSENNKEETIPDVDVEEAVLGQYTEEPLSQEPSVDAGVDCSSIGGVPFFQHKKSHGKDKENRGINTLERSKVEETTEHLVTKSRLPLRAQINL

[2] = target: T1, Kinesin-like protein KIF11; experiment: Inhibition of mitotic kinesin Eg5 (unknown origin)

IC50 [1] [µM]	IC50 [2] [µM]	Structure (SMILES)
9.03		CC(=O)Nc1ncnc(N2CCCC(NC(=O)COc3cccc(Cl)c3)C2)c1-c1ccccc1 (centres undefined)
11.4		CC(=O)Nc1ncnc(N2CCCC(NC(=O)Cc3cccc(F)c3)C2)c1-c1ccccc1 (centres undefined)
4.86		CC(=O)Nc1ncnc(N2CCCC(NC(=O)c3cccc(C(F)(F)F)c3)C2)c1-c1ccccc1 (centres undefined)
	0.459	COc1ccc(Nc2nc3cc(C(=O)O)ccc3n2Cc2ccccc2C(F)(F)F)cc1F
